Reference: patent US20040146509A1, “Methods for improvement of lung function using TGF-beta inhibitors” (priority 2002, published 2004)

Test system: bleomycin-induced lung fibrosis
Assay: Lung hydroxyproline content following bleomycin-induced lung fibrosis (14 days)
Type: in vivo, rat
Settings: rats, bleomycin intratracheal day 0; day 1-14: Compound B 30 mg/kg oral three times a day, Triamcinolone 8 mg/kg i.p. every other day; versus bleo+saline; FIG. 8
Procedure: Male Sprague-Dawley rats weighing 225 to 250 were purchased from Charles River Laboratories, Inc. Rats were housed in groups of two in the animal facility provided with filtered air and constant temperature and humidity. All animal maintenance was in accordance with Scios' guidelines for animal welfare. The rats were allowed to acclimate to the new environment for one week before all treatment. A 12:12 hour light-dark cycle was maintained, and the animals had free access to ad libitum food and water.
Day 0: To induce pulmonary fibrosis, rats were intubated with 0.5 ml of saline or 0.5 ml of 1.0 unit/ml of bleomycin by intratracheal injection under anesthesia. The anesthetic solution used is a mixture of 0.4 ml of ketamine (100 mg/ml) and 0.25 ml of xylazine (20 mg/ml) at a dose of 1.3 ml/kg.
Group 2 & 3: Rats were weighed and orally dosed with 5 ml/kg of saline three times a day […]
To estimate the total amount of collagen in fibrotic lungs, the hydroxyproline content of the whole lung was measured in each group according to the method described by Woessner Biochim Biophys Acta. […]
Briefly, lungs were harvested and homogenized in 15 ml of 1×PBS with a Polytron homogenizer. […] The hydroxyproline content was the measured using the method of Woessner.
The data were analyzed using a one-way analysis of variance (ANOVA) with a Bonferroni's multiple comparisons post tests. […]

C[C@]12C=CC(=O)C=C1CC[C@H]1[C@@H]3C[C@@H](O)[C@](O)(C(=O)CO)[C@@]3(C)C[C@H](O)[C@@]12F [Triamcinolone]
lung hydroxyproline content: significantly reducing lung hydroxyproline content
